Experimental data published in patent US11795177B2, “Substituted quinoline analogs as aldehyde dehydrogenase 1A1 (ALDH1A1) inhibitors” (THE UNITED STATES OF AMERICA, AS REPRESENTED BY THE …, priority 2017, dated 2023).
Where a name gives a salt, the structure may show the parent alone.

What was measured:
[1] = target: T1, ALDH1A1 enzyme (Homo sapiens, UniProt P00352); test: ALDH1A1 enzymatic assay (in vitro); type: biochemical; conditions: ALDH1A1 enzyme 20 nM, NAD+ 1 mM, propionaldehyde 80 μM; read-out: ALDH1A1 IC50
T1 sequence (P00352 1-501): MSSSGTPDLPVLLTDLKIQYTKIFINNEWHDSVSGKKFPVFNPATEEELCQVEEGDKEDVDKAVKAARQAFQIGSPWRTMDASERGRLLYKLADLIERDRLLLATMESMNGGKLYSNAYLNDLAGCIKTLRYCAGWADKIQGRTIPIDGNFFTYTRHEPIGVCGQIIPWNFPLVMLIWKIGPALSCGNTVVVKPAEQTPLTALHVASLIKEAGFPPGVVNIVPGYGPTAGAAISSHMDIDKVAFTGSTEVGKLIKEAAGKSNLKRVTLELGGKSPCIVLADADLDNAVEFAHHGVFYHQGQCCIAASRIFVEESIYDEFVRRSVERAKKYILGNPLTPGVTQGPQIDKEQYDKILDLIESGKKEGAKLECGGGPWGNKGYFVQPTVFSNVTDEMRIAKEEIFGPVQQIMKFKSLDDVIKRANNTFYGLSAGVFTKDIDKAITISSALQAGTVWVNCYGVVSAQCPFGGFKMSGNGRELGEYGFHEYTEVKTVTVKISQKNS
Experimental: Example 358. ALDH1A1 Enzymatic Assay (In Vitro Assay)
3 μL of ALDH1A1 enzyme (final concentration 20 nM) or assay buffer (100 mM HEPES pH 7.5 with 0.01% Tween 20) were dispensed into a 1,536-well solid-bottom black plate (Greiner Bio One, Monroe, N.C.) followed by pin-tool transfer (23 nL) of candidate inhibitors (final concentration range 968 pM to 57.2 μM) and control (Bay 11-7085, final concentration range 1.31 nM to 2.86 μM). Samples were incubated (RT, protected from light) for 15 minutes followed by a 1 μL substrate addition of NAD^+ and Propionaldehyde (final concentrations of 1 mM and 80 μM, respectively). Plates were centrifuged at 1,000 rpm for 15 seconds, then read in kinetic mode on a ViewLux High-throughput CCD imager (Perkin-Elmer) equipped with standard UV fluorescence optics (340 nm excitation, 450 nm emission) for 10 minutes. The change in fluorescence intensity over the 10-minute reaction period was normalized against no-inhibitor and no-enzyme controls and the resulting percent inhibition data were fitted for biological activity.

[2] = tested on: MIA PaCa-2 cells; test: MIA PaCa2 cell-based assay (1,536-well high-content imaging ALDEFLUOR assay); design: species or system human; conditions: Homo sapiens, 0.5 h, ALDEFLUOR BAAA substrate 500 nM, 30 minutes
Outline: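 High-content ALDEFLUOR imaging readout: BAA-retaining cells in FITC channel scored against Hoechst-counted nuclei. Before imaging, MIA PaCa-2 cells seeded at 1,000 per well received final 500 nM BAAA and 0.5 nM Hoechst with compounds in 16-point series (1.4 nM to 47.8 μM), 30 min, 37° C.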

Structure (SMILES)	IC50 [1]	IC50 [2]
CN(C)C(=O)N1CCN(C(=O)c2cnc3ccc(Cl)cc3c2N2CCC(C#N)(c3ccccc3)CC2)CC1 [Cpd. 312, 4-(6-chloro-4-(4-cyano-4-phenylpiperidin-1-yl)quinoline-3-carbonyl)-N,N-dimethylpiperazine-1-carboxamide]	< 500 nM	< 500 nM
CCOC(=O)N1CCN(C(=O)c2cnc3ccc(OC)cc3c2N2CCC3(CC2)OCCO3)CC1 [Example 40, Ethyl 4-(6-methoxy-4-(1,4-dioxa-8-azaspiro[4.5]decan-8-yl)quinoline-3-carbonyl)piperazine-1-carboxylate]	< 500 nM	> 10000 nM
O=C(c1cnc2ccc(F)cc2c1N1CCC2(CC1)Cc1ccccc1C2=O)N1CCN(C(=O)C2CC2)CC1 [Example 204, 1′-(3-(4-(cyclopropanecarbonyl)piperazine-1-carbonyl)-6-fluoroquinolin-4-yl)spiro[indene-2,4′-piperidin]-1(3H)-one]	1000 to 10000 nM	> 10000 nM
O=C(c1cnc2c(F)cc(F)cc2c1N1CCC2(CC1)OCCO2)N1CCN(S(=O)(=O)N2CCCC2)CC1 [Example 163, (6,8-difluoro-4-(1,4-dioxa-8-azaspiro[4.5]decan-8-yl)quinolin-3-yl)(4-(pyrrolidin-1-ylsulfonyl)piperazin-1-yl)methanone]	< 500 nM	> 10000 nM
COc1ccc2ncc(C(=O)N3CCN(c4ccncc4)CC3)c(N3CCC4(CC3)OCCO4)c2c1 [Example 15, (6-methoxy-4-(1,4-dioxa-8-azaspiro[4.5]decan-8-yl)quinolin-3-yl)(4-(pyridin-4-yl)piperazin-1-yl)methanone, TFA]	1000 to 10000 nM	> 10000 nM
COc1cc2ncc(C(=O)N3CCN(S(C)(=O)=O)CC3)c(N3CCC4(CC3)OCCO4)c2cc1OC [Example 130, (6,7-dimethoxy-4-(1,4-dioxa-8-azaspiro[4.5]decan-8-yl)quinolin-3-yl)(4-(methylsulfonyl)piperazin-1-yl)methanone]	< 500 nM	1000 to 10000 nM
COC1(C)CCN(c2c(C(=O)N3CCN(C(=O)C4CC4)CC3)cnc3ccc(F)cc23)CC1 [Example 61, (4-(cyclopropanecarbonyl)piperazin-1-yl)(6-fluoro-4-(4-methoxy-4-methylpiperidin-1-yl)quinolin-3-yl)methanone]	< 500 nM	> 10000 nM
CC1(C#N)CCN(c2c(C(=O)N3CCN(S(=O)(=O)C4CC4)CC3)cnc3ccccc23)CC1 [Example 98, 1-(3-(4-(cyclopropylsulfonyl)piperazine-1-carbonyl)quinolin-4-yl)-4-methylpiperidine-4-carbonitrile]	1000 to 10000 nM	> 10000 nM
CC(C)NC(=O)N1CCN(C(=O)c2cnc3ccc(F)cc3c2N2CCC(C)(C#N)CC2)CC1 [Example 90, 4-(4-(4-cyano-4-methylpiperidin-1-yl)-6-fluoroquinoline-3-carbonyl)-N-isopropylpiperazine-1-carboxamide]	1000 to 10000 nM	> 10000 nM
CC(C)C1CCN(c2c(C(=O)N3CCN(C(=O)C4CC4)CC3)cnc3ccc(F)cc23)CC1 [Example 74, (4-(cyclopropanecarbonyl)piperazin-1-yl)(6-fluoro-4-(4-isopropylpiperidin-1-yl)quinolin-3-yl)methanone]	< 500 nM	1000 to 10000 nM
COc1c(F)cc2c(N3CCC(C)(C#N)CC3)c(C(=O)N3CCN(C(=O)C4CC4)CC3)cnc2c1F [Example 127, 1-(3-(4-(cyclopropanecarbonyl)piperazine-1-carbonyl)-6,8-difluoro-7-methoxyquinolin-4-yl)-4-methylpiperidine-4-carbonitrile]	< 500 nM	1000 to 10000 nM
CN(C)C(=O)N1CCN(C(=O)c2cnc3c(F)cc(F)cc3c2N2CCC(C)(C#N)CC2)CC1 [Example 183, 4-(4-(4-cyano-4-methylpiperidin-1-yl)-6,8-difluoroquinoline-3-carbonyl)-N,N-dimethylpiperazine-1-carboxamide]	< 500 nM	1000 to 10000 nM
COc1ccc2ncc(C(=O)N3CCC(F)(F)CC3)c(N3CCC4(CC3)OCCO4)c2c1 [Example 32, (4,4-difluoropiperidin-1-yl)(6-methoxy-4-(1,4-dioxa-8-azaspiro[4.5]decan-8-yl)quinolin-3-yl)methanone]	500 to 1000 nM	> 10000 nM
CC1(C#N)CCN(c2c(C(=O)N3CCN(S(C)(=O)=O)CC3)cnc3cc(F)c(F)cc23)CC1 [Example 136, 1-(6,7-difluoro-3-(4-(methylsulfonyl)piperazine-1-carbonyl)quinolin-4-yl)-4-methylpiperidine-4-carbonitrile]	< 500 nM	1000 to 10000 nM
CCS(=O)(=O)N1CCN(C(=O)c2cnc3cc(F)c(F)cc3c2N2CCC(C)(C#N)CC2)CC1 [Example 176, 1-(3-(4-(ethylsulfonyl)piperazine-1-carbonyl)-6,7-difluoroquinolin-4-yl)-4-methylpiperidine-4-carbonitrile]	< 500 nM	1000 to 10000 nM
COc1ccc2ncc(C(=O)N3CCC(N4CCCC4)CC3)c(N3CCC4(CC3)OCCO4)c2c1 [Example 11, (6-methoxy-4-(1,4-dioxa-8-azaspiro[4.5]decan-8-yl)quinolin-3-yl)(4-(pyrrolidin-1-yl)piperidin-1-yl)methanone, TFA]	> 10000 nM	> 10000 nM

Further lines, results first:

IC50 [1]	IC50 [2]	Structure (SMILES)
< 500 nM	1000 to 10000 nM	Cn1ncc2c(N3CCC(C)(C#N)CC3)c(C(=O)N3CCN(C(=O)C4CC4)CC3)cnc21 [Example 205, 1-(5-(4-(cyclopropanecarbonyl)piperazine-1-carbonyl)-1-methyl-1H-pyrazolo[3,4-b]pyridin-4-yl)-4-methylpiperidine-4-carbonitrile]
1000 to 10000 nM	> 10000 nM	C[C@@H]1CN(C(=O)c2cnc3ccc(F)cc3c2N2CCC(C)(C#N)CC2)C[C@H](C)N1C(=O)C1CC1 [Example 228, 1-(3-((3R*,5S*)-4-(cyclopropanecarbonyl)-3,5-dimethylpiperazine-1-carbonyl)-6-fluoroquinolin-4-yl)-4-methylpiperidine-4-carbonitrile]
> 10000 nM	> 10000 nM	CC1(C#N)CCN(c2c(C(=O)N3CCN(C(=O)C4CC4)C(C)(C)C3)cnc3ccc(F)cc23)CC1 [Example 231, 1-(3-(4-(cyclopropanecarbonyl)-3,3-dimethylpiperazine-1-carbonyl)-6-fluoroquinolin-4-yl)-4-methylpiperidine-4-carbonitrile]
1000 to 10000 nM	> 10000 nM	C[C@@H]1CN(C(=O)c2cnc3ccc(F)cc3c2N2CCC(C)(C#N)CC2)C[C@H](C)N1S(C)(=O)=O [Example 225, 1-(3-((3R*,5S*)-3,5-dimethyl-4-(methylsulfonyl)piperazine-1-carbonyl)-6-fluoroquinolin-4-yl)-4-methylpiperidine-4-carbonitrile]
< 500 nM	< 500 nM	CN(C)C(=O)N1CCN(C(=O)c2cnc3ccc(F)cc3c2-c2ccc(C(C)(C)C#N)cc2)CC1 [Example 263, 4-(4-(4-(2-cyanopropan-2-yl)phenyl)-6-fluoroquinoline-3-carbonyl)-N,N-dimethylpiperazine-1-carboxamide]
< 500 nM	1000 to 10000 nM	CC1(C#N)CCN(c2c(C(=O)N3CCN(S(C)(=O)=O)C4(CC4)C3)cnc3ccc(F)cc23)CC1 [Example 230, 1-(6-fluoro-3-(4-(methylsulfonyl)-4,7-diazaspiro[2.5]octane-7-carbonyl)quinolin-4-yl)-4-methylpiperidine-4-carbonitrile]
< 500 nM	< 500 nM	Cc1ccc(C2(C#N)CCN(c3c(C(=O)N4CCN(S(C)(=O)=O)CC4)cnc4ccc(F)cc34)CC2)c(F)c1 [Example 277, 1-(6-fluoro-3-(4-(methylsulfonyl)piperazine-1-carbonyl)quinolin-4-yl)-4-(2-fluoro-4-methylphenyl)piperidine-4-carbonitrile]
500 to 1000 nM	1000 to 10000 nM	CC(C)(O)C1(c2ccccc2)CCN(c2c(C(=O)N3CCN(S(C)(=O)=O)CC3)cnc3ccc(F)cc23)CC1 [Example 258, (6-fluoro-4-(4-(2-hydroxypropan-2-yl)-4-phenylpiperidin-1-yl)quinolin-3-yl)(4-(methylsulfonyl)piperazin-1-yl)methanone]
